pIC50: −log10 of the molar value.
How the values were obtained:
[1] = biological target: T1, mGAT2 (Mus musculus, UniProt P31651); details: data from Bolvig et al. 1999; read-out: mGAT2 uptake IC50; cited from earlier work
T1 construct: expressed in transfected cells

[2] = biological target: T2, human ρ1 GABAC receptors (Homo sapiens, UniProt P24046); assay: GABAC receptor two-electrode voltage clamp in Xenopus laevis oocytes; assay type: cell-based; details: GABA 1 μM (EC80), clamped at −60 mV
T2 construct: expressed in transfected cells; host or cells: Xenopus laevis oocytes injected with ρ1 mRNA
Procedure: Human ρ1 cDNA encapsulated in pcDNA1.1 was linearized with Not1. Linearized cDNA was transcribed to mRNA using the T7 “mMESSAGE mMACHINE” kit (Ambion Inc. Austin, Tex., USA) as previously described. […] Eur. J. Pharmacol. 2001, 430, 185-192. GABAC receptor activity assays were performed in oocytes harvested from Xenopus laevis (housed in the Department of Veterinary Science at the University of Sydney) and defolliculated. The oocytes were stored in ND96 solution (in mM) NaCl (96), KCl (2), MgCl2 (1), CaCl2 (1.8), HEPES (hemi-Na salt; 5) supplemented with sodium pyruvate (2.5), theophylline (0.5), and 50 μg/ml^−1 gentamycin for 2-5 days post-injection.
Electrophysiological methods were performed as previously described. Hertz L, Juurlink B H J, Hertz E, Fosmark H and Schousboe A. Preparation of Primary Cultures of Mouse (Rat) Astrocytes, in A Dissection and Tissue Culture Mnual of the Nervous System (Shahar A, de Vellis J, Vernadakis A and Haber B eds) pp 105-108, Alan R. Liss, Inc., New York, 1989 Stage V-VI oocytes were injected with 10 ng 50 nl^−1 of ρ1 mRNA and then stored at 16° C. Recordings of receptor activity were obtained for 2-5 days by a two-electrode voltage clamp by means of a Geneclamp 500 amplifier (Axon Instruments Inc., Foster City, Calif.), a MacLab 2e recorder (AD Instruments, Sydney, NSW), and Chart version 3.6.3 program. Oocytes were voltage clamped at −60 mV, and the preparation was continually perfused with ND96 solution at room temperature. […] Compound 2 (CPP-115) was tested on three oocytes from at least two harvests.

[3] = biological target: T3, hGAT-3 (Homo sapiens, UniProt P48066); details: data from Kvist et al. 2009; read-out: hGAT-3 uptake IC50; cited from earlier work
T3 construct: expressed in transfected cells; host or cells: tsA201 cells, transient (PolyFect)

[4] = biological target: T4, hGAT-2 (Homo sapiens, UniProt Q9NSD5); details: data from Kvist et al. 2009; read-out: hGAT-2 uptake IC50; cited from earlier work
T4 construct: expressed in transfected cells; host or cells: tsA201 cells, transient (PolyFect)

[5] = system: Sprague Dawley rats; assay: cocaine induced dopamine surge in nucleus accumbens (FIG. 3); details: vigabatrin 300 mg/kg single dose
[6] = system: patients; details: cited from earlier work
[7] = system: Mice; assay: minimal clonic seizure (6 Hz) test; assay type: in vivo; details: Single IP drug dose, 3 seconds; for ED50: Mus musculus, ip; for ED50 / 6 Hz TPE: corneal electrode
Text: Some clinically useful AEDs are ineffective in the standard MES and scMET tests but still have anticonvulsant activities in vivo. In order to identify potential AEDs with this profile, compounds may be tested in the minimal clonic seizure (6 Hz or ‘psychomotor’) test (Barton et al., 2001). […] Test compounds are pre-administered to mice via i.p. injection. At varying times, individual mice (four per time point) are challenged with sufficient current delivered through corneal electrodes to elicit a psychomotor seizure in 97% of animals (32 mA for 3 s) (Toman et al., 1952). Untreated mice will display seizures characterized by a minimal clonic phase followed by stereotyped, automatistic behaviors described originally as being similar to the aura of human patients with partial seizures. Animals not displaying this behavior are considered protected. The test may be evaluated quantitatively by measuring the responses at varying doses at a determined time of peak effect (TPE). This test may also be conducted at 22 and 44 mA if requested by ASP staff.

[8] = system: human brain GABA; details: after a single dose; cited from earlier work
[9] = system: Mice; assay: subcutaneous picrotoxin (scPIC); assay type: in vivo; details: Single IP drug dose, 2.5 mg/kg PIC; up to 100 mg/kg
Procedure: Bicuculline (Bic) and Picrotoxin (Pic) are chemoconvulsants that cause clonic seizures in a manner similar to Metrazol (see scMET test). […] Therefore, as much as possible it is useful to differentiate novel AEDs pharmacologically. […]. At a previously determined time of peak effect (TPE), the animals are given a subcutaneous injection of either of the noted chemo-convulsants using the convulsive dose (CD97—a dose of 2.7 or 2.5 mg/kg, for Bic and Pic, respectively). The experimental animals are placed in isolation cages to minimize possible crowding stresses (Swinyard et al., 1961) and observed for the next 30 minutes (for Bic) or 45 minutes (for Pic) for the presence or absence of a seizure. An episode of clonic spasms, approximately 3-5 seconds, of the fore and/or hindlimbs, jaws, or vibrissae is used as the experimental endpoint.

[10] = system: Mice; assay: subcutaneous Metrazol seizure threshold test (scMET); assay type: in vivo; details: Single IP drug dose, Metrazol 85 mg/kg; up to 1500 mg/kg
Procedure: (§1) Subcutaneous injection of the convulsant Metrazol produces clonic seizures in laboratory animals. […] Animals are pretreated with various doses of the test compound given by i.p. injection. At the previously determined TPE of the test compound, the dose of Metrazol which will induce convulsions in 97% of animals (CD97; 85 mg/kg mice) is injected into a loose fold of skin in the midline of the neck. The animals are placed in isolation cages to minimize stress (Swinyard et al, 1961) and observed for the next 30 minutes for the presence or absence of a seizure. An episode of clonic spasms, approximately 3-5 seconds, of the fore and/or hindlimbs, jaws, or vibrissae is taken as the endpoint.

[11] = system: Rat; assay: as above; assay type: in vivo; details: 7 days IP, at 600 mg/kg, Metrazol 70 mg/kg
Procedure: as §1

[12] = system: Sprague-Dawley rats; details: vigabatrin, Ashby et al. 1999; cited from earlier work
[13] = system: humans; details: trial of 103 subjects, cocaine dependence; cited from earlier work
[14] = system: Mice; assay: corneal kindling; assay type: in vivo; details: Single IP drug dose, 3 secs; for ED50: read-out: Corn. Kind. ED50
Text: Mice are kindled electrically with 3 sec stimulation, 8 mA, 60 Hz, and corneal electrodes to a criterion of 10 consecutive Stage 5 seizures (facial clonus and head nodding progressing to forelimb clonus, and finally rearing and falling accompanied by a generalized clonic seizure as described by Racine). Stage 5 is generally reached after twice daily stimulation for 8 days. With continued stimulation once a day, animals usually progress to a reproducible Stage 5 after 10-14 additional days. At least 72 hours after the mice have been kindled, the test substance is administered either i.p. or p.o. and, at the previously determined TPE, each animal is given the electrical stimulus indicated above. Following stimulation, the animals are observed for the presence or absence of the rearing and falling criteria of a Stage 5 seizure. Treated animals not displaying a Stage 3, 4, or 5 seizure are considered protected. The dose of the test substance is varied between the limits of 0 and 100% efficacy, and the ED50 (mean effective dose) and 95% confidence intervals calculated by probit analysis. Mean values and the S.E.M. are calculated for the length of clonus and seizure duration and p values are determined by the Student's t-test

[15] = system: Sprague-Dawley rats; details: vigabatrin, earlier work; cited from earlier work
[16] = system: Sprague-Dawley rats; details: saline/cocaine pairings, cocaine 20 mg/kg i.p.
[17] = system: Sprague-Dawley rats; assay: μPET imaging of 11C-raclopride binding after cocaine; details: cocaine 5 mg/kg intravenous, average, preliminary
[18] = biological target: γ-aminobutyric acid aminotransferase (GABA-AT) (Sus scrofa, UniProt P80147); details: cited from earlier work
Chain of γ-aminobutyric acid aminotransferase (GABA-AT) (P80147 29-500): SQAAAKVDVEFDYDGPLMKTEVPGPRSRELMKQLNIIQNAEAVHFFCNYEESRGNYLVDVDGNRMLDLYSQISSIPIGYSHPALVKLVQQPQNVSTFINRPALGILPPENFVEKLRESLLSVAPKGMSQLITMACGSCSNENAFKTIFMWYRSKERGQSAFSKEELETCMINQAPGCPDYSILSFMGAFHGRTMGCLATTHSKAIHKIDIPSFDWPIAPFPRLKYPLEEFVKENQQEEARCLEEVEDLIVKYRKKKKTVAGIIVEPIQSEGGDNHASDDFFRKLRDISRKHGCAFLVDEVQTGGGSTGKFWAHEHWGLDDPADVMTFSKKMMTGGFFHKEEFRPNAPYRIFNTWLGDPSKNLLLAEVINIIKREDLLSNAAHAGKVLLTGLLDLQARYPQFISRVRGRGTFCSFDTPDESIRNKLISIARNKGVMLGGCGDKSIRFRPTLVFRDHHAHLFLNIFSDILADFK

T3 sequence (P48066 whole entry): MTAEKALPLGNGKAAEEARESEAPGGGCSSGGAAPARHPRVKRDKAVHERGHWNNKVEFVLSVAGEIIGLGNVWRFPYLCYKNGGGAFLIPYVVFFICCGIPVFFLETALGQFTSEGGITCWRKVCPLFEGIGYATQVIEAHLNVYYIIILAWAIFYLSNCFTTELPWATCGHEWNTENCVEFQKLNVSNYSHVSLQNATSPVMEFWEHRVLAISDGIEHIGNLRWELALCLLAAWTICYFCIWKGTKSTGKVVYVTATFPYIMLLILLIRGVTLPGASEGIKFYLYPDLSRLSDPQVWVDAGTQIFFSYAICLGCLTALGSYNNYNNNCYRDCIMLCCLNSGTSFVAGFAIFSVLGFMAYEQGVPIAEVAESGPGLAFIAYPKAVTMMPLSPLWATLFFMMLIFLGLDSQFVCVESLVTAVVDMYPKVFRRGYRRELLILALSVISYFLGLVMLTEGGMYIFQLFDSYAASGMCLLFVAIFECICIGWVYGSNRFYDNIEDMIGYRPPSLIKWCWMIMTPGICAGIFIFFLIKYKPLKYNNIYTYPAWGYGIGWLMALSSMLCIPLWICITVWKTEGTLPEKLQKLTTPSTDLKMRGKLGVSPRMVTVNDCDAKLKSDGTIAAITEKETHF
T2 sequence (P24046 21-479 limits assumed): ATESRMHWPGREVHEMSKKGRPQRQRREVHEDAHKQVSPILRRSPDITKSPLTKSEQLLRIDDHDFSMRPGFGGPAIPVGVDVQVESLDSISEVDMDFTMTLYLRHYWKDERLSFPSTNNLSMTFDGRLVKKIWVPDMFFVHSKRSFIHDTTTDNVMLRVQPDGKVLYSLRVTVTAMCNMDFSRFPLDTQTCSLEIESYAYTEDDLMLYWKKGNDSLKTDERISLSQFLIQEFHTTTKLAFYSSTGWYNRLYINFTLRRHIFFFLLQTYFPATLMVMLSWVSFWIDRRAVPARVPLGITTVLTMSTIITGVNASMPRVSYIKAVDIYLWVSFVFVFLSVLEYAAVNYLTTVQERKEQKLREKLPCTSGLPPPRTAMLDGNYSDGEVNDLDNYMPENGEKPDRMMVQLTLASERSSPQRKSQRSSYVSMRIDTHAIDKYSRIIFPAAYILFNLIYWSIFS
T4 sequence (Q9NSD5 whole entry): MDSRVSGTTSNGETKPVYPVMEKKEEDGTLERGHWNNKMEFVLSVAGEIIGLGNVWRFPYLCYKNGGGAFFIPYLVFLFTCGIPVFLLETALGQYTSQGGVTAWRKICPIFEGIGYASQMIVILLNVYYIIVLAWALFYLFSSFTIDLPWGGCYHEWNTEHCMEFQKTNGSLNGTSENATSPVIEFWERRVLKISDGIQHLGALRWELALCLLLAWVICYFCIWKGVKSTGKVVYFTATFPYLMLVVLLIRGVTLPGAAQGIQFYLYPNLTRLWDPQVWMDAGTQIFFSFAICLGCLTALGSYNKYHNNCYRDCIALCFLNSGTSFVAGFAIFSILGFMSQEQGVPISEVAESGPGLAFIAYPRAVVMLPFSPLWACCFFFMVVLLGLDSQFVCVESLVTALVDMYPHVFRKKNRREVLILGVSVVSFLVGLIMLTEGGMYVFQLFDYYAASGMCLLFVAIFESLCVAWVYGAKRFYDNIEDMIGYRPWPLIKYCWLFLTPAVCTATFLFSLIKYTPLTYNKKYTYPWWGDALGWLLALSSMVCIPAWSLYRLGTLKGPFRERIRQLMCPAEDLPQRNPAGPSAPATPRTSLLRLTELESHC
T1 sequence (P31651 whole entry): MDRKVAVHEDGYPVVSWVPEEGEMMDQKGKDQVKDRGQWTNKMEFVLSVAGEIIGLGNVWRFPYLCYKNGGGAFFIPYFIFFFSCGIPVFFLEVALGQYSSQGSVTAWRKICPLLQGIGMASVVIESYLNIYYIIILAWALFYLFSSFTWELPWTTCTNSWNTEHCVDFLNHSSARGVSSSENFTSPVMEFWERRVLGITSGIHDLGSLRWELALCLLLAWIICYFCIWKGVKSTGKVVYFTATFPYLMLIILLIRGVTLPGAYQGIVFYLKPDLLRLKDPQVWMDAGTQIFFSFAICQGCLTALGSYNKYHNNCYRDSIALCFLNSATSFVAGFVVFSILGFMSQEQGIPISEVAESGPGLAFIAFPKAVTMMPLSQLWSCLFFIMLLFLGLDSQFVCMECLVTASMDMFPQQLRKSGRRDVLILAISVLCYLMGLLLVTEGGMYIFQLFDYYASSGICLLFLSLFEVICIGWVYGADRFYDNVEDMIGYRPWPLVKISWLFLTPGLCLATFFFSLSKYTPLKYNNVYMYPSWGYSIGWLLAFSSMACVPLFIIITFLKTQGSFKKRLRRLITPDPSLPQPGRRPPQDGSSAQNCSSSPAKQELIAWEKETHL

NCCCC(=O)O [GABA, γ-aminobutyric acid]
pIC50 [1]: 4.29
activation of current in oocytes [2]: activated an inward current
pIC50 [3]: 5.00
pIC50 [4]: 4.96

C=CC(N)CCC(=O)O (centres unmarked) [Vigabatrin, γ-vinyl GABA, reference compound]
dopamine increase after cocaine challenge [5]: > 300% of baseline
share of patients affected with visual field defects ([6]; after multiple years of therapy): One third or more of patients
patients with visual field defects ([6]; following chronic administration): 25-50%
occurrence of visual field defect ([6]; shorter duration exposure, stimulant addiction studies): does not show any occurrence of visual field defect
time after initiation of therapy at which visual field defects were detectable ([6]; some patients): less than 2 months
ED50 ([7]; 32 mA): 23.4 mg/kg
ED50 ([7]; 44 mA): 154 mg/kg
6 Hz protection ([7]; 22 mA, all times @ 100 mg/kg): “good protection” @
6 Hz TPE ([7]; 32 mA): TPE 4 hours
6 Hz TPE ([7]; 44 mA): TPE 4 hours
brain GABA levels [8]: remain substantially elevated for several days
scPIC protection [9]: Minimal protection up
scMET protection [10]: Minimal protection up
scMET protection [11]: 75% protection at 600
dose effective previously against cocaine-induced dopamine increase [12]: 300 mg/kg
subjects who achieved abstinence [13]: 28.0%
ED50 ([14]; 192 h, primed @ 8 mA, 60 Hz, for 8 days): 80.4 mg/kg
ED50 ([14]; 288 h, primed @ 3 mA, 50 Hz, for 12 days): 159 mg/kg
Corn. Kind. TPE ([14]; primed @ 8 mA, 60 Hz, for 8 days): TPE 4 hours
dose required for similar findings (block of cocaine-induced CPP) [15]: 300 mg/kg

COC(=O)[C@H]1[C@@H](OC(=O)c2ccccc2)C[C@@H]2CC[C@H]1N2C [cocaine, reference compound]
time spent in the other chamber [16]: 4.8 ± 2.8 min
time spent in cocaine-paired chamber ([16]; p<0.01): 12.2 ± 1.7 min
reduction of 11C-raclopride binding [17]: 22%

N[C@@H]1C=C[C@H](C(=O)O)C1 [compound 1, (1R,4S)-4-amino-cyclopent-2-ene-1-carboxylic acid]
specificity constant relative to GABA ([18]; substrate of GABA-AT): almost five times greater than that of GABA

C=C1C[C@H](C(=O)O)C[C@@H]1N [compound 6, (1S,3S)-3-amino-4-methylenyl-1-cyclopentanoic acid]
inactivation of GABA-AT ([18]; without 2-mercaptoethanol): inactivation of GABA-AT was observed

From US8969413B2
